# Data published in ChEMBL document CHEMBL3885881, “DrugMatrix”.
# Species on record: Rattus norvegicus
# Assay: DrugMatrix - Regimen: Daily Repeat
# Type: toxicity, organism-based, Sprague-Dawley
# Parameters: regimen Daily Repeat, gender Male, age 6-8 weeks
# Details: in vivo, po, route oral GAVAGE, vehicle 100 % WATER; for ABSOLUTE BASOPHIL / ABSOLUTE EOSINOPHIL / ABSOLUTE LYMPHOCYTE / ABSOLUTE MONOCYTE / ABSOLUTE SEGMENTED NEUTROPHIL / BASOPHIL / EOSINOPHIL / ERYTHROCYTE COUNT / HEMATOCRIT / HEMOGLOBIN / LEUKOCYTE COUNT / LYMPHOCYTE / MEAN CORPUSCULAR HEMOGLOBIN / MEAN CORPUSCULAR HEMOGLOBIN CONCENTRATION / MEAN CORPUSCULAR VOLUME / MONOCYTE / NEUTROPHIL / NUCLEATED RED BLOOD CELLS / PLATELET COUNT: tissue Blood; for ALANINE AMINOTRANSFERASE / ALBUMIN / ALKALINE PHOSPHATASE / ASPARTATE AMINOTRANSFERASE / BLOOD UREA NITROGEN / CARBON DIOXIDE / CHLORIDE / CHOLESTEROL / CREATINE PHOSPHOKINASE / CREATININE / GLUCOSE / LACTATE DEHYDROGENASE / LIPASE / PHOSPHORUS / POTASSIUM / SODIUM / TOTAL BILIRUBIN / TOTAL PROTEIN / URIC ACID: tissue Plasma
# [1] = 0 mg/kg, 72 h, dose level Control, time 3 day
# [2] = 0 mg/kg, 120 h, dose level Control, time 5 day
# [3] = 4.5 mg/kg, 72 h, dose level Low, time 3 day
compound,measurement,setting,value
NN [HYDRAZINE],ABSOLUTE BASOPHIL,[1],0 CELLS/uL
same,ABSOLUTE EOSINOPHIL,[1],20.17 CELLS/uL
same,ABSOLUTE LYMPHOCYTE,[1],12371.67 CELLS/uL
same,ABSOLUTE MONOCYTE,[1],166 CELLS/uL
same,ABSOLUTE SEGMENTED NEUTROPHIL,[1],1292.17 CELLS/uL
same,BASOPHIL,[1],0%
same,EOSINOPHIL,[1],0.17%
same,ERYTHROCYTE COUNT,[1],5.46 x10E6/uL
same,HEMATOCRIT,[1],34.38%
same,HEMOGLOBIN,[1],13.32 G/DL
same,LEUKOCYTE COUNT,[1],13.85 x10E3/uL
same,LYMPHOCYTE,[1],88.5%
same,MEAN CORPUSCULAR HEMOGLOBIN,[1],24.42 pg
same,MEAN CORPUSCULAR HEMOGLOBIN CONCENTRATION,[1],38.7 G/DL
same,MEAN CORPUSCULAR VOLUME,[1],63.07 fL
same,MONOCYTE,[1],1.17%
same,NEUTROPHIL,[1],10.17%
same,NUCLEATED RED BLOOD CELLS,[1],0.17 /100WBC
same,PLATELET COUNT,[1],1193.5 x10E3/uL
same,ALANINE AMINOTRANSFERASE,[1],54.5 u/L
same,ALBUMIN,[1],4.02 G/DL
same,ALKALINE PHOSPHATASE,[1],346.5 u/L
same,ASPARTATE AMINOTRANSFERASE,[1],103.17 u/L
same,BLOOD UREA NITROGEN,[1],16.5 mg/dL
same,CARBON DIOXIDE,[1],29.83 mmol/L
same,CHLORIDE,[1],99.5 MEQ/L
same,CHOLESTEROL,[1],72.5 mg/dL
same,CREATINE PHOSPHOKINASE,[1],532.5 u/L
same,CREATININE,[1],0.18 mg/dL
same,GLUCOSE,[1],168.5 mg/dL
same,LACTATE DEHYDROGENASE,[1],536.5 u/L
same,LIPASE,[1],11.17 u/L
same,PHOSPHORUS,[1],11.48 mg/dL
same,POTASSIUM,[1],5.95 MEQ/L
same,SODIUM,[1],140.5 MEQ/L
same,TOTAL BILIRUBIN,[1],0.18 mg/dL
same,TOTAL PROTEIN,[1],5.77 G/DL
same,URIC ACID,[1],1.42 mg/dL
same,ABSOLUTE BASOPHIL,[2],0 CELLS/uL
same,ABSOLUTE EOSINOPHIL,[2],22.83 CELLS/uL
same,ABSOLUTE LYMPHOCYTE,[2],12202.83 CELLS/uL
same,ABSOLUTE MONOCYTE,[2],158 CELLS/uL
same,ABSOLUTE SEGMENTED NEUTROPHIL,[2],1283 CELLS/uL
same,BASOPHIL,[2],0%
same,EOSINOPHIL,[2],0.17%
same,ERYTHROCYTE COUNT,[2],5.88 x10E6/uL
same,HEMATOCRIT,[2],36.62%
same,HEMOGLOBIN,[2],14.07 G/DL
same,LEUKOCYTE COUNT,[2],13.67 x10E3/uL
same,LYMPHOCYTE,[2],89.5%
same,MEAN CORPUSCULAR HEMOGLOBIN,[2],23.95 pg
same,MEAN CORPUSCULAR HEMOGLOBIN CONCENTRATION,[2],38.43 G/DL
same,MEAN CORPUSCULAR VOLUME,[2],62.28 fL
same,MONOCYTE,[2],1.17%
same,NEUTROPHIL,[2],9.17%
same,NUCLEATED RED BLOOD CELLS,[2],0.17 /100WBC
same,PLATELET COUNT,[2],1198 x10E3/uL
same,ALANINE AMINOTRANSFERASE,[2],51 u/L
same,ALBUMIN,[2],4.3 G/DL
same,ALKALINE PHOSPHATASE,[2],343 u/L
same,ASPARTATE AMINOTRANSFERASE,[2],89.83 u/L
same,BLOOD UREA NITROGEN,[2],17.67 mg/dL
same,CARBON DIOXIDE,[2],27.17 mmol/L
same,CHLORIDE,[2],98.33 MEQ/L
same,CHOLESTEROL,[2],82.5 mg/dL
same,CREATINE PHOSPHOKINASE,[2],533.33 u/L
same,CREATININE,[2],0.18 mg/dL
same,GLUCOSE,[2],152.67 mg/dL
same,LACTATE DEHYDROGENASE,[2],220.33 u/L
same,LIPASE,[2],11.5 u/L
same,PHOSPHORUS,[2],11.25 mg/dL
same,POTASSIUM,[2],6.29 MEQ/L
same,SODIUM,[2],140.53 MEQ/L
same,TOTAL BILIRUBIN,[2],0.22 mg/dL
same,TOTAL PROTEIN,[2],6.12 G/DL
same,URIC ACID,[2],1.42 mg/dL
same,ABSOLUTE BASOPHIL,[3],0 CELLS/uL
same,ABSOLUTE EOSINOPHIL,[3],52 CELLS/uL
same,ABSOLUTE LYMPHOCYTE,[3],11298 CELLS/uL
same,ABSOLUTE MONOCYTE,[3],113 CELLS/uL
same,ABSOLUTE SEGMENTED NEUTROPHIL,[3],1470.33 CELLS/uL
same,BASOPHIL,[3],0%
same,EOSINOPHIL,[3],0.33%
same,ERYTHROCYTE COUNT,[3],5.57 x10E6/uL
same,HEMATOCRIT,[3],35.73%
same,HEMOGLOBIN,[3],13.97 G/DL
same,LEUKOCYTE COUNT,[3],12.93 x10E3/uL
same,LYMPHOCYTE,[3],87.33%
same,MEAN CORPUSCULAR HEMOGLOBIN,[3],25.1 pg
same,MEAN CORPUSCULAR HEMOGLOBIN CONCENTRATION,[3],39.1 G/DL
same,MEAN CORPUSCULAR VOLUME,[3],64.2 fL
same,MONOCYTE,[3],1%
same,NEUTROPHIL,[3],11.33%
same,NUCLEATED RED BLOOD CELLS,[3],0.33 /100WBC
same,PLATELET COUNT,[3],1229.67 x10E3/uL
same,ALANINE AMINOTRANSFERASE,[3],44.67 u/L
same,ALBUMIN,[3],4.07 G/DL
same,ALKALINE PHOSPHATASE,[3],421.33 u/L
same,ASPARTATE AMINOTRANSFERASE,[3],89.67 u/L
same,BLOOD UREA NITROGEN,[3],13.33 mg/dL
same,CARBON DIOXIDE,[3],30.67 mmol/L
same,CHLORIDE,[3],99 MEQ/L
same,CHOLESTEROL,[3],73.67 mg/dL
same,CREATINE PHOSPHOKINASE,[3],298.33 u/L
same,CREATININE,[3],0.17 mg/dL
same,GLUCOSE,[3],155 mg/dL
same,LACTATE DEHYDROGENASE,[3],178.33 u/L
same,LIPASE,[3],10.67 u/L
same,PHOSPHORUS,[3],11.43 mg/dL
same,POTASSIUM,[3],6.44 MEQ/L
same,SODIUM,[3],142.33 MEQ/L
same,TOTAL BILIRUBIN,[3],0.2 mg/dL
same,TOTAL PROTEIN,[3],6.07 G/DL
same,URIC ACID,[3],1.73 mg/dL
